# In patent US20050215625A9, “Combination therapy for anticoagulation” (priority 2003, published 2005):
# Read-outs that look alike come from different tables or passages of the source.
# System: anticoagulation level (International Normalized Ratio)
# Conditions: for variation from low to high doses of warfarin / warfarin dose, low to high: across the first 24 measures
# Experimental: Adult anticoagulation patients presenting to the practice site were informed of the study, and the opportunity to be a test subject. Subjects were required to complete a study entry data interview, provide informed consent, and present to the clinic once to twice weekly for INR evaluation. The control group and a second group (the algorithm group) of patients were provided warfarin alone as an anticoagulation agent, while the study group patients received warfarin and 100 μg of vitamin K in a single gelatin capsule from a single pharmacy. […] The study received clearance from the St. Mary's Medical Center Institutional Review Board, Galesburg, Ill.
# An initial study interview was conducted and identified a patient's sex, age, indication for anticoagulation, and prescription and nonprescription medication usage. Those who were appropriate for study and provided consent were required to present to the clinic for once or twice weekly INR testing.
# The control group (N=6) received their warfarin dosed by conventional tablet forms and presented to the office at least weekly for INR labs (more often if dosage changes were required).
# The algorithm group (N=6) received their warfarin based upon an algorithm devised by the investigators to standardize the adjustments and the dosing of warfarin in smaller increments than those available in conventional dosages of oral medication (tablets). The algorithm specified dosages of warfarin other than those used by the manufacturer, in order for the prescribing physician to specify smaller incremental dosage changes than those permitted with the standard dosages available.
# The purpose of having the algorithm group as a part of the study was to determine if the algorithm played a significant role in reducing nontherapeutic anticoagulation intervals. […] If a dosing adjustment was required due to a nontherapeutic INR, the dose of warfarin would be adjusted in a fixed increment and the time of the next INR set by reducing the interval.
# The second theory behind the algorithm is that at the lower warfarin doses, the interval between easily taken amounts is a significant dose change. For example, the increase in dosage between 1 mg and 2 mg daily is a 100 percent dose increase. In comparison, the increase between the 4 mg tab and the 5 mg tab is a 25 percent dose increase. In order to create smaller dosage steps between doses of warfarin, the various available tablets were halved along their scoring lines and the appropriate amount was placed into a gelatin capsule for easy daily dosing. For instance, a dose of 1.75 mg warfarin required one-half of a 2.5 mg tablet and one-half of a 1 mg tab to be placed into a gelatin capsule. A cooperating compounding pharmacist placed the daily doses of warfarin into gelatin capsules for the use of the patients in the algorithm group.
# The study group (N=12) received warfarin combined with 100 μg of vitamin K compounded into a gelatin capsule by the compounding pharmacist. The warfarin was dosed by the study algorithm, described above. Patients who randomized to this group received their current dose of warfarin along with the dose of vitamin K in the daily gelatin capsule. And as the INR fluctuated, the dose of warfarin was adjusted by the algorithm.
# The combination of warfarin and vitamin K was accomplished by adding fixed amounts of each into an orally dosed form. The doses of warfarin used within the study protocol were (in milligrams): 0.5, 1, 1.25, 1.5, 1.75, 2.0, 2.25, 2.5, 2.75, 3.0, 3.25, 3.5, 3.75, 4.0, 4.5, 5.0, 5.5, 6.0, 6.5, 7.0, 7.5, 8.0, 8.5, 9.0, 9.5, 10, 11, 12, 13, 15.
# [1] = algorithm only arm, average dose
# [2] = combination capsule group (dosed by algorithm) or standard care group
structure (smiles),measurement,setting,value
"CC(=O)CC(c1ccccc1)c1c(O)c2ccccc2oc1=O (centres unmarked) [warfarin alone, 3-(_-acetonylbenzyl)-4-hydroxycoumarin]",variation from low to high doses of warfarin,[1],25.3%
same,"warfarin dose, low to high",[1],4.71-6.30 mgs
same,variation from low to high doses of warfarin,[2],36.9%
same,"warfarin dose, low to high",[2],3.50-5.55 mgs
same,persons with a dosage change in their anticoagulation after a change in concomitant medical therapy,"control and algorithm arms, includes two subjects who had this occur twice",Eight
same,number of clinically safe anticoagulation levels (INR level between 2.0 and 3.0),"over six months, INR at least weekly, up to 35 INR measurements, combination group N=12 (100 μg vitamin K) vs control and algorithm groups combined, p=0.032",14.83
same,number of medically safe anticoagulation levels (INR level between 1.8 and 3.5),"over six months, INR at least weekly, combination group N=12 vs control and algorithm groups combined, p=0.048",18.42
same,number of medically unsafe INRs (INR less than 1.5 or greater than 4.9),"over six months, combination group N=12 vs control and algorithm groups combined, p=0.054, not significant",22.00
